# Laboratory results: BindingDB's records for doi:10.7270/Q2PR7TDC (Burnham Center For Chemical Genomics, 2010)
# Assay: TNFa-triggered NF-kB activation inhibitors, SAR follow-up, cell-based, revised (AID 2337)
row,Compound,IC50 [µM]
1,"N#CC(C(=O)COC(=O)CSc1ccc2ccccc2c1)c1nc2ccccc2[nH]1 (stereo not drawn) [[3-cyano-3-(1,3-dihydrobenzimidazol-2-ylidene)-2-oxopropyl] 2-naphthalen-2-ylsulfanylacetate]",> 20
2,"Cc1cc(Br)ccc1SCC(=O)OCC(=O)C(C#N)c1nc2ccccc2[nH]1 (stereo not drawn) [2-[(4-bromo-2-methylphenyl)thio]acetic acid [3-cyano-3-(1,3-dihydrobenzimidazol-2-ylidene)-2-oxopropyl] ester]",> 20
3,"CCCOC1=CC(=O)C(C=NNC(=S)Nc2ccccc2[N+](=O)[O-])C=C1 (stereo not drawn) [1-(2-nitrophenyl)-3-[[(E)-(6-oxo-4-propoxy-1-cyclohexa-2,4-dienylidene)methyl]amino]thiourea]",0.88
4,"Cc1ccc(O)c(/N=C/C2=CC(Cc3ccccc3)C=C([N+](=O)[O-])C2=O)c1 (stereo not drawn) [(6E)-6-[[(5-methyl-2-oxidanyl-phenyl)amino]methylidene]-2-nitro-4-(phenylmethyl)cyclohexa-2,4-dien-1-one]",> 20
5,CCOC1=CC=CC(C=NNC(=S)Nc2ccccc2[N+](=O)[O-])C1=O (stereo not drawn) [MLS-0270696.0001],0.414
6,Cc1ccc(C)c(SCC(=O)OCC(=O)C(C#N)c2nc3ccccc3[nH]2)c1 (stereo not drawn) [MLS000392255],> 20
7,N#CC(C(=O)COC(=O)CSc1ccc(Cl)cc1)c1nc2ccccc2[nH]1 (stereo not drawn) [MLS-0208254.0001],> 20
8,Cc1cc(SCC(=O)OCC(=O)C(C#N)c2nc3ccccc3[nH]2)c(C)cc1Br (stereo not drawn),> 20
